Experimental data: PubChem BioAssay (NCI)
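Step 1: Grow cells in 96-well plates. Step 2: Expose to compound for 48 hours at 5 concentrations. Step 3: Interpolate endpoints linearly; if unreached, use highest concentration. At the TGI there is no net growth.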

Tests used:
Experiment in all cases: NCI anticancer screen, dose series, 48 h
[1] = test system: SK-OV-3 ovarian
[2] = test system: PC-3 prostate
[3] = test system: CAKI-1 renal
[4] = test system: NCI-H522 lung
[5] = test system: MOLT-4 leukemia
[6] = test system: HOP-92 NSCLC
[7] = test system: SK-MEL-5 melanoma
[8] = test system: SF-268 CNS
[9] = test system: T-47D breast
[10] = test system: MALME-3M melanoma

Compound | TGI [1] [µM] | TGI [2] [µM] | TGI [3] [µM] | TGI [4] [µM] | TGI [5] [µM] | TGI [6] [µM] | TGI [7] [µM] | TGI [8] [µM] | TGI [9] [µM] | TGI [10] [µM]
CCCCCCCCCCCCCCCC(=O)N(CCCCCCCCCCC(=O)O)CC(O)C(O)C(OC1OC(CO)C(O)C(O)C1O)C(O)CO (stereo not drawn) | > 100 | > 100 | > 100 | > 100 | 46.4 | > 100 | > 100 | 48.9 | > 100 | 36.3
O=C(Cc1ccccc1)Nn1c(-c2ccccc2)nc2ccccc2c1=O | > 100 | > 100 |  | > 100 | > 100 | > 100 | > 100 | > 100 | > 100 | > 100
CCOC(=O)C(NC(=O)c1ccccc1)(N1CCOCC1)C(F)(F)F (stereo not drawn) | > 100 | > 100 | > 100 | > 100 | > 100 | > 100 | > 100 | > 100 | > 100 | > 100
O=C(O)CC1NCc2cc3ccccc3nc21 (stereo not drawn) | > 100 | > 100 | > 100 | > 100 | > 100 | > 100 | > 100 | > 100 | > 100 | > 100
FC(F)(F)c1cccc(-c2nc3ccccc3c3c2[C@@]2(N4CCCC4)CCCC[C@@H]32)c1 | > 100 | > 100 | > 100 | 31.8 | > 100 | 55.2 | 30.4 | > 100 | > 100 | > 100
CCCCCCCCCCCCOCCCOP(=O)([O-])OCC[N+](C)(C)C | > 100 | 9.73 | 47.5 | 68.3 | 65.1 | 52.8 | > 71.3 | 86 | 38 | > 84.4
COc1cc2c(=O)cnoc2cc1O | > 100 | > 100 | > 100 | > 100 | > 100 | > 100 | > 100 | > 100 | > 100 | > 100
COC(=O)c1cnc(Cl)cn1 | > 100 | > 100 | 37.5 | 5.33 | > 100 | > 100 | > 100 | > 100 | > 100 | > 100
O=[N+]([O-])c1ccc(C=NCC2CCCN3CCCCC23)cc1 (stereo not drawn) | > 100 | > 100 | > 100 | > 100 | > 100 | > 100 | > 100 | > 100 | > 100 | > 100
COc1ccc(N2C=Nn3c(nc4sc5c(c4c3=O)CCCC5)C2)cc1 | > 100 | > 100 | > 100 | > 100 | > 100 | 41.8 | > 100 | > 100 | > 100 | 78
Cc1noc(NC2=CC(=O)C(=O)c3ccccc32)c1C | > 100 | > 100 | > 100 | 79.2 | 47.4 | 78.1 | 3.75 | > 100 | > 100 | 17.6
COc1c(O)cc2c(c1O)C(=O)/C(=C/c1ccc(O)cc1)CO2 | 59.3 | > 100 | 53.9 | 33.8 | > 100 | > 100 | 59.6 | > 100 | 94.8 | 96.4
COc1ccc(C2C3COc4ccccc4C3=NN2c2ccccc2)cc1 (stereo not drawn) | > 100 | > 100 | > 100 | > 100 | > 100 | > 100 | > 100 | > 100 | > 100 | > 100
Cc1ccc(/C(O)=C/c2nc3ccccc3s/c2=N/CS(=O)(=O)c2ccc(C)cc2)cc1 | > 10 | > 10 | > 10 | > 10 | > 10 | > 10 | > 10 | > 10 | > 10 | > 10
Oc1ccc(Cl)cc1CN1CCN(Cc2cc(Cl)ccc2O)C1 | 13.3 | 6.69 | 6.48 | 13.2 | 12 | 5.15 | 2.22 | 12.8 | 10.9 | 8.29
CC(=O)OCC1OC(Oc2cc(C)c(O)cc2C/C=C(\C)CC/C=C(\C)CC(=O)CC(C)C)C(O)C(OC(C)=O)C1OC(C)=O (stereo not drawn) | > 50 | > 50 | > 50 | > 50 | 19.5 | > 50 | 14.9 | > 50 | 27.3 | > 50
O=C(CNc1ccccc1[N+](=O)[O-])Nn1c(-c2ccccc2)nc2ccccc2c1=O | > 100 | 61.5 |  | > 10 | 49.8 | 28.3 | 22.1 | > 100 | 39.2 | 40.6
COc1ccc(OC)c(NS(=O)(=O)c2ccc3nc(C)n(NS(=O)(=O)c4cc(OC)ccc4OC)c(=O)c3c2)c1 | > 100 | > 100 | > 100 | > 100 | 62.7 | > 100 | > 100 | > 100 | > 100 | > 100
